# Measurements from US20220226342A1, “COMPOSITIONS AND METHODS OF TREATING LIVER CANCERS” (The Johns Hopkins University, priority 2019, published 2022).
# Key:
# [1] = test system: 40 HCC PDO lines; assay: 10 μM drug screening, cell viability at 96 h (CellTiter-Glo); format: cell-based, human; details: one HCC PDO line, 96 h
# Description: FIG. 2A-2E. 10 μM drug screening and IC50 calculation across 40 PDOs from 20 HCC patients. (2A). 10 μM drug screening of omacetaxine and sorafenib, regorafenib, lenvatinib and cabozantinib on 40 PDOs derived from 20 HCC patients. X axis—the 40 PDO lines, Y axis—Cell viability. (2B). IC50 curve of 40 PDO lines, x-axis—omacetaxine dose, Y axis—Relative cell viability. (2C). […] (2D). IC50 distribution of 40 HCC PDOs. X axis—PDO lines, Y axis—IC50 number of omacetaxine for each PDO.
# As readout of drug effectiveness, cell viability at 96 hours (h) was measured. White light microscopy images of one of the HCC PDO lines across 129 drugs was prepared. In FIG. 2E, each panel represents the image collected at 96 hours after treatment with each drug, at a concentration of 10 μM. […] To quantify survival, we implemented CellTiter-Glo, a luminescent cell viability assay. A total of 129 readings (one for each drug) was obtained for each of the 40 PDO lines, for a total of […] data points. […] Next, the inventors contrasted the survival of the […] HCC PDO lines when treated with omacetaxine versus current FDA approved drugs for HCC.
# [2] = test system: HCC patients; details: clinical trial; cited from earlier work
# [3] = test system: HCC patients; details: cited from earlier work
Compound,white light microscopy image of organoids [1],efficacy compared to sorafenib [2],median increase in life span ([3]; HCC patients) [months],"median survival of HCC patients ([3]; SHARP trial, extended from 7.9) [months]"
CC(C)C[C@H](NC(=O)[C@H](Cc1ccccc1)NC(=O)c1cnccn1)B(O)O [bortezomib],induce cell destruction,,,
COc1cc2nccc(Oc3ccc(NC(=O)NC4CC4)c(Cl)c3)c2cc1C(N)=O [lenvatinib],,non-inferior efficacy,,
CNC(=O)c1cc(Oc2ccc(NC(=O)Nc3ccc(Cl)c(C(F)(F)F)c3)cc2)ccn1 [sorafenib],allow unrestricted organoid growth,,9.2,10.7
